Reference: PubChem BioAssay (NCI)
Values joined by “and” are separate entries in the source; they are usually repeats but may differ in a detail not shown here. Identical values can stand only once.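 Assay format: 96-well plates, 48-hour exposure. GI50 marks 50% less growth. At the TGI there is no net growth.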

tested on: MDA-MB-468 breast; test: DTP human tumour cell line panel, 48 h

Question: Which GI50 does the source give for `Cc1ccc2c(n1)C(=O)C(Cl)=C(Nc1ccc(N3CCN(C)CC3)cc1)C2=O` here?
Answer: Its GI50 is 1510 nM.

Question: What about the TGI of the same compound?
Answer: The TGI was 3.13 µM.

Question: `O=c1[nH]cc(CO)c(=O)[nH]1` was tested. Which GI50 did it give?
Answer: Its GI50 is greater than 100000 nM.

Question: What about the TGI of the same compound?
Answer: The TGI was greater than 100 µM.

Question: What does the source list for `C[C@@H](Oc1cc(-c2cnn(C3CC4(CNC4)C3)c2)cnc1N)c1c(Cl)ccc(F)c1Cl`?
Answer: GI50: 2460 nM; TGI: 9.35 µM

Question: For `CS(=O)/C(C#N)=C\C=C\c1cccc(Cl)c1` (stereo not drawn), which GI50 is on record?
Answer: The GI50 was 1270 nM.

Question: And the TGI?
Answer: The TGI was 4.28 µM.

Question: For `O=[N+]([O-])c1ccc(Oc2cccc(C(F)(F)F)c2)c([N+](=O)[O-])c1`, which GI50 is on record?
Answer: The GI50 was 1640 nM.

Question: What about the TGI of the same compound?
Answer: The TGI was 3.1 µM.

Question: `CCOC(=O)C1=C(C)NC(C)=C(C(=O)OCC)C1c1cc(Br)c(O)c(OC)c1` was tested. Which GI50 did it give?
Answer: Its GI50 is 2880 nM.

Question: What about the TGI of the same compound?
Answer: The TGI was 14.4 µM.

Question: For `Cc1ccc(C2NC(=S)N3C(c4ccc(C)cc4)NC(=S)N23)cc1` (stereo not drawn), which GI50 is on record?
Answer: The GI50 was 4620 nM.

Question: And the TGI?
Answer: The TGI was 18.9 µM.

Question: With `Cc1ccn2c(-c3csc(Nc4cccc(O)c4)n3)c(C)nc2c1` as the compound, how does the GI50 read?
Answer: Its GI50 is 1770 nM.

Question: And the TGI?
Answer: Its TGI is 7.91 µM.

Question: Which GI50 does the source give for `NS(=O)(=O)c1cccc(-c2cc3ccncc3cc2OCc2ccccc2)c1` here?
Answer: Its GI50 is 4080 nM.

Question: What about the TGI of the same compound?
Answer: The TGI was 16 µM.

Question: `C/C(=C\CCc1ccsc1)CC/C=C(\C)CCCN1CCN(CCO)CC1` was tested. Which GI50 did it give?
Answer: The GI50 was 1610 nM.

Question: What about the TGI of the same compound?
Answer: The TGI was 4.1 µM.

Question: Which results are given for `O=c1c(-c2ccc3c(c2)OCO3)coc2c(CO)c(O)ccc12`?
Answer: GI50: 1850 nM; TGI: 5.37 µM

Question: How did the GI50 turn out when `O=[N+]([O-])c1ccc(N/N=C/c2ccccc2O)nc1` was run?
Answer: Its GI50 is 3120 nM.

Question: And the TGI?
Answer: The TGI was 29.9 µM.

Question: How did the GI50 turn out when `Oc1[nH]c2ccc(Cl)cc2c1/C=c1/ccc2c(c1)N=C(c1ccc(C(F)(F)F)cc1)N=2` was run?
Answer: The GI50 was 1940 nM.

Question: What about the TGI of the same compound?
Answer: Its TGI is 4.57 µM.

Question: `COc1ccc(C2=NNC(c3cc(Cc4ccc(O)c(C5CC(c6ccc(OC)cc6)=NN5)c4)ccc3O)C2)cc1` (stereo not drawn) was tested. Which GI50 did it give?
Answer: The GI50 was 2970 nM.

Question: And the TGI?
Answer: Its TGI is 22.9 µM.

Question: For `CC(=O)Nc1c(I)c(C(=O)O)c(I)c(N(C)C(C)=O)c1I`, which GI50 is on record?
Answer: Its GI50 is greater than 100000 nM.

Question: And the TGI?
Answer: Its TGI is greater than 100 µM.

Question: With `Cc1cc(NS(=O)(=O)c2ccc(NC(=O)COc3ccc(-c4cc5ccccc5[nH]4)cc3)cc2)no1` as the compound, how does the GI50 read?
Answer: Its GI50 is 1610 nM.

Question: What about the TGI of the same compound?
Answer: The TGI was 3.52 µM.

Question: For `CCCCCCCCn1ccc2cc(NC(=O)Cn3cc(CN4CCC(C)CC4)nn3)ccc21`, which GI50 is on record?
Answer: The GI50 was 1620 nM.

Question: And the TGI?
Answer: Its TGI is 3.29 µM.

Question: With `Cc1ccc(-n2nnc3c(sc4ccccc43)c2=O)cc1` as the compound, how does the GI50 read?
Answer: The GI50 was 18500 nM.

Question: And the TGI?
Answer: The TGI was greater than 100 µM.

Question: What does the source list for `O=C(N/N=C/c1ccncc1)c1ccc(C(F)(F)F)nc1Nc1cccc(C(F)(F)F)c1`?
Answer: GI50: 1350 nM; TGI: 4.39 µM

Question: For `COc1cc2nc(Cl)nc(Nc3cccc(C4=Nc5c(N)nc(N)nc5NC(c5ccc(Cl)cc5)C4)c3)c2cc1OC` (stereo not drawn), which GI50 is on record?
Answer: The GI50 was 1730 nM.

Question: What about the TGI of the same compound?
Answer: The TGI was 3.49 µM.

Question: Which GI50 does the source give for `Cc1cc(Br)c2nsnc2c1[N+](=O)[O-]` here?
Answer: Its GI50 is 1450 nM.

Question: What about the TGI of the same compound?
Answer: Its TGI is 3.24 µM.

Question: With `CCc1ccc(Oc2nccc(-c3c(-c4ccc(F)cc4)ncn3C3CCNCC3)n2)cc1` as the compound, how does the GI50 read?
Answer: Its GI50 is 3710 nM.

Question: And the TGI?
Answer: Its TGI is 7.59 µM.

Question: `Cc1ccc(NC(C(=O)c2ccccc2)c2ccccc2)cc1` (stereo not drawn) was tested. Which GI50 did it give?
Answer: Its GI50 is 2180 nM.

Question: And the TGI?
Answer: The TGI was 8.85 µM.

Question: With `CCN1CCN(CC(=O)Nc2nc3ccc(NCc4ccc(C)cc4)cc3s2)CC1` as the compound, how does the GI50 read?
Answer: Its GI50 is 2030 nM.

Question: And the TGI?
Answer: The TGI was 8.96 µM.

Question: How did the GI50 turn out when `O=C1c2cccc3cccc(c23)C(=O)N1CC#Cc1ccc2c3c(cccc13)C(=O)N(CCN1CCNCC1)C2=O` was run?
Answer: Its GI50 is 2190 nM.

Question: And the TGI?
Answer: Its TGI is 5.3 µM.

Question: Which GI50 does the source give for `N#Cc1ccc(N2Cc3cc(Cl)ccc3OC3=C2C(=O)N(Cc2ccc(F)cc2)C3=O)cc1` here?
Answer: Its GI50 is 595 nM.

Question: And the TGI?
Answer: The TGI was 1.34 µM.

Question: Which results are given for `Nc1cccc2c1CN(C1CCC(=O)NC1=O)C2=O` (stereo not drawn)?
Answer: GI50: > 100000 nM; TGI: > 100 µM

Question: `COC(=O)c1c2c(c(C)[n+]([O-])c1C)C(=O)C=C(NCc1ccc(Br)cc1)C2=O` was tested. Which GI50 did it give?
Answer: The GI50 was 207 nM.

Question: What about the TGI of the same compound?
Answer: Its TGI is 0.816 µM.

Question: How did the GI50 turn out when `O=C(NC1CCNCC1)c1[nH]ncc1NC(=O)c1c(Cl)cccc1Cl` was run?
Answer: The GI50 was 191 nM and 209 nM.

Question: And the TGI?
Answer: The TGI was 0.434 µM and 0.525 µM.

Question: For `O=C(Nc1ccc2cc3ccc(NC(=O)N4CCCCCC4)cc3nc2c1)N1CCCCCC1`, which GI50 is on record?
Answer: Its GI50 is 1560 nM.

Question: What about the TGI of the same compound?
Answer: Its TGI is 3.03 µM.

Question: Which GI50 does the source give for `Cc1ccc(-c2c3c(N)nc(-c4ccncc4)nc3nc3c2c(C)nn3-c2ccccc2)cc1` here?
Answer: Its GI50 is greater than 37500 nM.

Question: And the TGI?
Answer: The TGI was greater than 37.5 µM.

Question: Which results are given for `O=C1NC(=O)C(N2CCc3ccccc32)=C1c1ccc(Cl)cc1`?
Answer: GI50: > 25000 nM; TGI: > 25 µM

Question: Which GI50 does the source give for `COc1cc(OC)cc(C(=O)Nc2cccc(C#Cc3cccc4[nH]nc(N)c34)c2)c1` here?
Answer: The GI50 was 558 nM.

Question: What about the TGI of the same compound?
Answer: The TGI was 3.92 µM.

Question: For `c1cc2ccc3cc2cc1CNCCOCCNCc1ccc2ccc(cc2c1)CNCCOCCNC3`, which GI50 is on record?
Answer: Its GI50 is greater than 100000 nM.

Question: And the TGI?
Answer: Its TGI is greater than 100 µM.

Question: For `NC(Cc1ccc(O)cc1)C(=O)N/N=C/c1ccc(N(CCCl)CCCl)cc1` (stereo not drawn), which GI50 is on record?
Answer: The GI50 was 958 nM.

Question: What about the TGI of the same compound?
Answer: The TGI was 10.5 µM.

Question: With `COc1ccc(Oc2nc(Nc3ccc(N4CCOCC4)cc3)ncc2NC(=O)Nc2cc(OC)cc(OC)c2)cc1` as the compound, how does the GI50 read?
Answer: The GI50 was 3390 nM.

Question: What about the TGI of the same compound?
Answer: Its TGI is 11.7 µM.

Question: How did the GI50 turn out when `COc1ccccc1N(C(C)=O)C1=C(Cl)C(=O)c2ccccc2C1=O` was run?
Answer: The GI50 was 487 nM.

Question: What about the TGI of the same compound?
Answer: The TGI was 1.94 µM.

Question: What does the source list for `CCCCCCCCCCCCNC(=O)[C@H]1CSC(c2cc(Br)cs2)N1` (stereo partly drawn)?
Answer: GI50: 890 nM; TGI: 1.74 µM

Question: How did the GI50 turn out when `C=C1C(=O)O[C@H]2[C@H]1CC/C(COC(=O)c1cccc3ccccc13)=C\CC[C@@]1(C)O[C@@H]21` was run?
Answer: Its GI50 is 1350 nM.

Question: What about the TGI of the same compound?
Answer: Its TGI is 3.13 µM.

Question: For `O=C1c2ccccc2C(=O)c2c(NCCNCCO)ccc(NCCNCCO)c21`, which GI50 is on record?
Answer: Its GI50 is 904 nM and 1300 nM and 1660 nM.

Question: And the TGI?
Answer: The TGI was 2.45 µM and 2.92 µM and 3.84 µM.

Question: With `CCOC(=O)c1c(C(F)(F)F)n([O-])c2ccc(Cl)cc2[n+]1=O` as the compound, how does the GI50 read?
Answer: Its GI50 is 1790 nM.

Question: What about the TGI of the same compound?
Answer: The TGI was 3.92 µM.

Question: With `Cc1cc(N2CCN(C)CC2)nc(N(CCNc2ccnc3cc(Cl)ccc23)Cc2ccco2)n1` as the compound, how does the GI50 read?
Answer: The GI50 was 2070 nM.

Question: What about the TGI of the same compound?
Answer: The TGI was 6.1 µM.

Question: Which results are given for `O=S1CCN(Cc2ccc(-c3ccc4ncnc(Nc5ccc(OCc6ccccc6)c(F)c5)c4c3)o2)CC1`?
Answer: GI50: 130 nM; TGI: 1.19 µM

Question: Which GI50 does the source give for `Nc1ncnc2c1nc(N)n2C1OC(CO)C(O)C1O` (stereo not drawn) here?
Answer: The GI50 was 220 nM.

Question: And the TGI?
Answer: Its TGI is 1.15 µM.
